# Measured values taken from ChEMBL document CHEMBL1817597, “Antifungal thiopeptide cyclothiazomycin B1 exhibits growth inhibition accompanying morphological changes via binding to fungal cell wall chitin” (Bioorg Med Chem, 2011).
# The source made the active and inactive calls. No cut-off for these calls is given here.
# Key:
# Mucor mucedo [1] = assay: Effect on cell wall re-generation in Mucor mucedo IFO 7684 spheroplasts at 0.026 uM after 12 hrs by microscopic analysis; assay type: functional
# Mucor mucedo [2] = assay: Inhibition of DNA synthesis in Mucor mucedo IFO 7684 assessed as [8-14C]-adenine uptake into acid-insoluble fractions at 0.13 uM after 25 mins by liquid scintillation counting; assay type: functional; settings: IFO 7684, 25 min
# Mucor mucedo [3] = assay: Antimicrobial activity against Mucor mucedo IFO 7684 after 24 hrs by broth microdilution method in presence of 100 uM of PKA inhibitor H8; assay type: functional; settings: IFO 7684, 24 h
# Fusarium oxysporum [4] = assay: Antifungal activity against Fusarium oxysporum NBRC 5942 under hypoosmotic shock assessed as increase of fragility of organism at 0.026 uM after 24 hrs measured after distilled water treatment for 10 mins by microscopic analysis; assay type: functional, organism-based
# Staphylococcus aureus [5] = assay: Antimicrobial activity against Staphylococcus aureus NCTC 8530 after 24 hrs by broth microdilution method; assay type: functional, organism-based
# Mucor mucedo [6] = assay: Inhibition of RNA synthesis in Mucor mucedo IFO 7684 assessed as [8-14C]-adenine uptake into acid-insoluble fractions at 0.13 uM after 25 mins by liquid scintillation counting; assay type: functional, organism-based
# Aspergillus fumigatus = assay: Antimicrobial activity against Aspergillus fumigatus IFO 5840 after 24 hrs by broth microdilution method; assay type: functional; settings: IFO 5840, 24 h
# Mucor mucedo [7] = assay: Induction of morphological changes in Mucor mucedo IFO 7684 assessed as swelling of hyphae at tips at MIC after 24 hrs by microscopic analysis; assay type: functional, organism-based
# Saccharomyces cerevisiae [8] = assay: Antimicrobial activity against Saccharomyces cerevisiae IFO 0203 after 24 hrs by broth microdilution method; assay type: functional, organism-based
# Aspergillus niger [9] = assay: Antimicrobial activity against Aspergillus niger ATCC 6275 after 24 hrs by broth microdilution method; assay type: functional; settings: ATCC 6275, 24 h
# Mucor mucedo [10] = assay: Antifungal activity against Mucor mucedo IFO 7684 under hypoosmotic shock assessed as increase of fragility of organism at 0.026 uM after 24 hrs measured after distilled water treatment for 10 mins by microscopic analysis; assay type: functional, organism-based
# HL-60 = assay: Cytotoxicity against human HL60 cells up to 65.5 uM after 24 hrs by Alamar blue assay; assay type: cell-based; settings: hl-60, 24 h
# Mucor mucedo [11] = assay: Inhibition of total protein synthesis in Mucor mucedo IFO 7684 assessed as [U-14C]-leucine uptake into acid-insoluble fractions at 0.13 uM after 25 mins by liquid scintillation counting relative to control; assay type: functional; settings: IFO 7684, 25 min
# Fusarium graminearum = assay: Antimicrobial activity against Gibberella zeae NBRC 8850 after 24 hrs by broth microdilution method; assay type: functional; settings: NBRC 8850, 24 h
# [12] = system: Fusarium sporotrichioides; assay: Antimicrobial activity against Fusarium sporotrichioides NBRC 33236 at <6.55 uM after 24 hrs by broth microdilution method; assay type: functional
# [13] = Binding affinity to chemically deacetylated chitin at 6.55 uM after 30 mins by HPLC analysis
# Mucor mucedo [14] = assay: Induction of morphological changes in Mucor mucedo IFO 7684 assessed as thickening of hyphae at 0.026 uM after 24 hrs by microscopic analysis in presence of 100 uM of PKA inhibitor H8; assay type: functional, organism-based
# Micrococcus luteus = assay: Antimicrobial activity against Micrococcus luteus IFO 3333 after 24 hrs by broth microdilution method; assay type: functional, organism-based
# Pseudomonas aeruginosa = assay: Antimicrobial activity against Pseudomonas aeruginosa IFO 3080 after 24 hrs by broth microdilution method; assay type: functional, organism-based
# THP-1 = assay: Cytotoxicity against human THP1 cells up to 65.5 uM after 24 hrs by Alamar blue assay; assay type: cell-based; settings: thp-1, 24 h
# Rhodotorula mucilaginosa = assay: Antimicrobial activity against Rhodotorula mucilaginosa IFO 0001 after 24 hrs by broth microdilution method; assay type: functional, organism-based
# Candida albicans = assay: Antimicrobial activity against Candida albicans IFO 1061 after 24 hrs by broth microdilution method; assay type: functional, organism-based
# Fusarium avenaceum = assay: Antimicrobial activity against Fusarium avenaceum NBRC 33237 at <6.55 uM after 24 hrs by broth microdilution method; assay type: functional, organism-based
# Mucor mucedo [15] = assay: Antimicrobial activity against Mucor mucedo IFO 7684 after 24 hrs by broth microdilution method in presence of 100 uM of PKA activator dbcAMP; assay type: functional; settings: IFO 7684, 24 h
# Neurospora sitophila [16] = assay: Antimicrobial activity against Neurospora sitophila DSM 1130 after 24 hrs by broth microdilution method; assay type: functional; settings: DSM 1130, 24 h
# LLC-PK1 = assay: Cytotoxicity against pig LLC-PK1 cells up to 65.5 uM after 24 hrs by Alamar blue assay; assay type: cell-based, Sus scrofa; settings: llc-pk1, 24 h
# NIH3T3 = assay: Cytotoxicity against mouse NIH/3T3 cells up to 65.5 uM after 24 hrs by Alamar blue assay; assay type: cell-based; settings: nih3t3, 24 h
# Mucor mucedo [17] = assay: Antimicrobial activity against Mucor mucedo IFO 7684 at <6.55 uM after 24 hrs by broth microdilution method; assay type: functional, organism-based
# Fusarium fujikuroi = assay: Antimicrobial activity against Gibberella fujikuroi NBRC 6349 at <6.55 uM after 24 hrs by broth microdilution method; assay type: functional, organism-based
# Bacillus licheniformis = assay: Antimicrobial activity against Bacillus licheniformis IFO 12107 after 24 hrs by broth microdilution method; assay type: functional, organism-based
# Fusarium oxysporum [18] = assay: Antimicrobial activity against Fusarium oxysporum NBRC 30700 at <6.55 uM after 24 hrs by broth microdilution method; assay type: functional, organism-based
# Mucor mucedo [19] = assay: Inhibition of chitin synthase in germinated Mucor mucedo IFO 7684 assessed as incorporation of GlcNAc from [14C]-UDP-GlcNAc into acid-insoluble fractions at 2.61 uM after 60 mins by liquid scintillation counting relative to control
# Mucor javanicus = assay: Antimicrobial activity against Mucor javanicus IFO 4569 at <6.55 uM after 24 hrs by broth microdilution method; assay type: functional
# Fusarium oxysporum [20] = assay: Antifungal activity against Fusarium oxysporum NBRC 5942 under hyperosmotic shock at 0.026 uM after 2 days by paper disc method; assay type: functional, organism-based
# Neurospora sitophila [21] = assay: Antimicrobial activity against Neurospora sitophila DSM 1130 at <6.55 uM after 24 hrs by broth microdilution method; assay type: functional
# Aspergillus niger [22] = assay: Antimicrobial activity against Aspergillus niger ATCC 6275 at <6.55 uM after 24 hrs by broth microdilution method; assay type: functional, organism-based
# Penicillium chrysogenum = assay: Antimicrobial activity against Penicillium chrysogenum IFO 4626 after 24 hrs by broth microdilution method; assay type: functional; settings: IFO 4626, 24 h
# Mucor mucedo [23] = assay: Induction of morphological changes in Mucor mucedo IFO 7684 assessed as thickening of hyphae at 0.026 uM after 24 hrs by microscopic analysis in presence of 100 uM of PKA activator dbcAMP; assay type: functional, organism-based
# Proteus vulgaris = assay: Antimicrobial activity against Proteus vulgaris IFO 3851 after 24 hrs by broth microdilution method; assay type: functional, organism-based
# Staphylococcus aureus [24] = assay: Antimicrobial activity against Staphylococcus aureus IFO 12732 after 24 hrs by broth microdilution method; assay type: functional, organism-based
# Saccharomyces cerevisiae [25] = assay: Antimicrobial activity against Saccharomyces cerevisiae ATCC 7754 after 24 hrs by broth microdilution method; assay type: functional, organism-based
# Escherichia coli = assay: Antimicrobial activity against Escherichia coli IFO 3545 after 24 hrs by broth microdilution method; assay type: functional, organism-based
# Fusarium oxysporum [26] = assay: Antimicrobial activity against Fusarium oxysporum NBRC 5942 after 24 hrs by broth microdilution method; assay type: functional; settings: NBRC 5942, 24 h
# Fusarium oxysporum [27] = assay: Antimicrobial activity against Fusarium oxysporum NBRC 30700 after 24 hrs by broth microdilution method; assay type: functional; settings: NBRC 30700, 24 h
smiles,measurement,setting,value
C=C1NC(=O)[C@H]2CSC(=N2)c2csc(n2)-c2ccc3c(n2)[C@H](C)NC(=O)[C@@H]2CCCN2C(=O)/C(=C/C)NC(=O)CNC(=O)[C@H](CCCNC(=N)N)NC(=O)C(C)(NC(=O)/C(=C/C)NC(=O)C2CSC(=N2)[C@H](CC(N)=O)NC3=O)SC[C@@H](C(=O)O)NC(=O)[C@H]2CSC(=N2)c2csc(n2)-c2csc1n2 [CYCLOTHIAZOMYCIN B1],Activity,Mucor mucedo [1],Active
same,inhibition at 0.13 µM,Mucor mucedo [2],84%
same,MIC,Mucor mucedo [3],0.013 µM
same,Activity,Fusarium oxysporum [4],Active
same,Activity,Staphylococcus aureus [5],inactive
same,inhibition,Mucor mucedo [6],inactive
same,MIC,Aspergillus fumigatus,> 1000 µg/mL
same,Activity,Mucor mucedo [7],Active
same,Activity,Saccharomyces cerevisiae [8],inactive
same,MIC,Aspergillus niger [9],> 1000 µg/mL
same,Activity,Mucor mucedo [10],Active
same,Activity,HL-60,Non-toxic
same,inhibition at 0.13 µM,Mucor mucedo [11],37%
same,MIC,Fusarium graminearum,0.063 µg/mL
same,Activity,[12],inactive
same,Activity,[13],inactive
same,Activity,Mucor mucedo [14],Active
same,Activity,Micrococcus luteus,inactive
same,Activity,Pseudomonas aeruginosa,inactive
same,Activity,THP-1,Non-toxic
same,Activity,Rhodotorula mucilaginosa,inactive
same,Activity,Candida albicans,inactive
same,Activity,Fusarium avenaceum,inactive
same,MIC,Mucor mucedo [15],0.013 µM
same,MIC,Neurospora sitophila [16],> 1000 µg/mL
same,Activity,LLC-PK1,Non-toxic
same,Activity,NIH3T3,Non-toxic
same,Activity,Mucor mucedo [17],inactive
same,Activity,Fusarium fujikuroi,inactive
same,Activity,Bacillus licheniformis,inactive
same,Activity,Fusarium oxysporum [18],inactive
same,inhibition,Mucor mucedo [19],64%
same,Activity,Mucor javanicus,inactive
same,Activity,Fusarium oxysporum [20],inactive
same,Activity,Neurospora sitophila [21],inactive
same,Activity,Aspergillus niger [22],inactive
same,MIC,Penicillium chrysogenum,0.63 µg/mL
same,Activity,Mucor mucedo [23],Active
same,Activity,Proteus vulgaris,inactive
same,Activity,Staphylococcus aureus [24],inactive
same,Activity,Saccharomyces cerevisiae [25],inactive
same,Activity,Escherichia coli,inactive
same,MIC,Fusarium oxysporum [26],0.5 µg/mL
same,MIC,Fusarium oxysporum [27],0.25 µg/mL
